Data taken from PubChem BioAssay (NCI).
Several values for one entry are separate records, joined by “and”; a condition that tells them apart may be missing. Equal values may be shown once.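 Method: 48-hour compound exposure of cells in 96-well plates, five concentrations, linear interpolation of endpoints. Here, GI50 denotes the concentration required for 50% inhibition of growth. At the TGI there is no net growth.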

Key:
Assay in all cases: NCI tumour cell line growth inhibition, 48 h
[1] = tested on: ACHN renal
[2] = tested on: HOP-62 NSCLC
[3] = tested on: KM12 colon
[4] = tested on: M14 melanoma
[5] = tested on: NCI-H23 lung
[6] = tested on: OVCAR-4 ovarian
[7] = tested on: UO-31 renal
[8] = tested on: A498 renal
[9] = tested on: OVCAR-5 ovarian
[10] = tested on: PC-3 prostate

SMILES | TGI [1] | TGI [2] | TGI [3] [µM] | TGI [4] | TGI [5] | TGI [6] | TGI [7] | TGI [8] [µM] | TGI [9] | TGI [10] [µM] | GI50 [8] [µM] | GI50 [1] [µM] | GI50 [3] [µM] | GI50 [10] [µM] | GI50 [7] [µM] | GI50 [2] [µM] | GI50 [4] [µM] | GI50 [5] [µM] | GI50 [9] [µM]
CC(=O)O[C@]12CCCCCC1C1(O)C(O)CCC[C@H]12 (stereo not given in full) | > 100 µM | > 100 µM | > 100 | > 100 µM | > 100 µM | > 100 µM | > 100 µM | – | – | – | – | – | – | – | – | – | – | – | –
COC(=O)c1c2c(cc3c1CC1(C3)Cc3cc4c(c(C(=O)OC)c3C1)CCCC4)CCCC2 | > 100 µM | > 100 µM | > 100 | > 100 µM | > 100 µM | > 100 µM | 1.23 µM | > 100 | > 100 µM | 39.5 | – | – | – | – | – | – | – | – | –
O=C(c1cc2ccccc2cc1O)N1CCCCC1 | > 100 µM | > 100 µM | > 100 | 64.9 µM | – | > 100 µM | > 100 µM | 63.2 | – | > 100 | – | – | – | – | – | – | – | – | –
COc1cc([N+](=O)[O-])c(OC)cc1-c1nc2sc(Cl)cn2c1/C=N/Nc1ccccn1 | 16.9 µM | – | > 50 | – | – | – | > 50 µM | 19.4 | – | > 50 | 8.95 | 8.43 | > 50 | 16.4 | > 50 | – | – | – | –
CC[C@H]1CN2CCc3cc(OC)c(OC)cc3[C@@H]2C[C@@H]1C[C@H]1NCCc2cc(OC)c(OC)cc21 | 0.0974 µM and 0.428 µM | 0.216 µM and 0.221 µM | 0.138 | 0.0512 µM and 0.0606 µM | 0.14 µM and 0.026 µM | 0.0541 µM and 0.0117 µM | 0.242 µM and 0.978 µM | 0.176 | 0.2 µM and 0.551 µM | 0.103 | – | – | – | – | – | – | – | – | –
O=c1ccc2cc3ccc4cccc5ccc(c2o1)c3c45 | 34 µM | – | – | > 100 µM | > 100 µM | – | 44.9 µM | 44.9 | – | – | – | – | – | – | – | – | – | – | –
Cc1c2c(n(CCc3ccc(Cl)cc3)c1C)NN=C(C#N)S2(=O)=O | > 100 µM | > 100 µM | > 100 | > 100 µM | > 100 µM | > 100 µM | > 100 µM | – | > 100 µM | > 100 | – | – | – | – | – | – | – | – | –
O=C(CNc1ccccc1Cl)Nn1c(-c2ccccc2)nc2ccccc2c1=O | > 100 µM | 72.9 µM | 87.1 | > 10 µM | 40.8 µM | 93.4 µM | > 100 µM | > 100 | > 10 µM | 99 | – | – | – | – | – | – | – | – | –
COc1ccc2cc(-c3ccc(-c4ccc(C(=N)N)s4)s3)ccc2c1 | 8.76 µM | 3.68 µM | 4.68 | 15.7 µM | 9.89 µM | – | 9.72 µM | 42.3 | 4.18 µM | 4.33 | 14.3 | 3.06 | 2.06 | 2.13 | 2.88 | 1.78 | 4 | 3.22 | 2.11
O=C(CCCN1CCC2(CC1)CC(=O)N(N1CCOCC1)C2=O)c1ccccc1 | > 100 µM | > 100 µM | > 100 | > 100 µM | > 100 µM | – | > 100 µM | – | > 100 µM | > 100 | – | – | – | – | – | – | – | – | –
CCN(CCO)CC1COc2ccccc2O1 (stereo not given) | > 100 µM | > 100 µM | > 100 | > 100 µM | > 100 µM | > 100 µM | > 100 µM | > 100 | > 100 µM | > 100 | – | – | – | – | – | – | – | – | –
